Experimental data from article PMC12090182, “Repurposing of the RIPK1-Selective Benzo[1,4]oxazepin-4-one Scaffold for the Development of a Type III LIMK1/2 Inhibitor” (ACS Chemical Biology, 2025).

Tests used:
Assay in all cases: biochemical
Format in all cases: binding
[1] = molecular target: 468 kinases including some pathogenic mutants (Homo sapiens, UniProt P08631); conditions: HCK (Entrez HCK), 100 nM; read-out: Percent Control
[2] = molecular target: 468 kinases including some pathogenic mutants (Homo sapiens, UniProt O15146); conditions: MUSK (Entrez MUSK), 100 nM; read-out: Percent Control
[3] = molecular target: 468 kinases including some pathogenic mutants (Homo sapiens, UniProt Q86Z02); conditions: HIPK1 (Entrez HIPK1), 100 nM; read-out: Percent Control
[4] = molecular target: 468 kinases including some pathogenic mutants (Homo sapiens, UniProt Q9H2G2); conditions: SLK (Entrez SLK), 100 nM; read-out: Percent Control
[5] = molecular target: 468 kinases including some pathogenic mutants (Homo sapiens, UniProt O94806); conditions: PRKD3 (Entrez PRKD3), 100 nM; read-out: Percent Control
[6] = molecular target: 468 kinases including some pathogenic mutants (Homo sapiens, UniProt Q9HBY8); conditions: SGK2 (Entrez SGK2), 100 nM; read-out: Percent Control
[7] = molecular target: 468 kinases including some pathogenic mutants (Homo sapiens, UniProt Q6ZN16); conditions: MAP3K15 (Entrez MAP3K15), 1000 nM; read-out: Percent Control
[8] = molecular target: 468 kinases including some pathogenic mutants (Homo sapiens, UniProt P54760); conditions: EPHB4 (Entrez EPHB4), 100 nM; read-out: Percent Control
[9] = molecular target: 468 kinases including some pathogenic mutants (Homo sapiens, UniProt Q99558); conditions: NIK (Entrez MAP3K14), 1000 nM; read-out: Percent Control
[10] = molecular target: 468 kinases including some pathogenic mutants (Homo sapiens, UniProt P30291); conditions: WEE1 (Entrez WEE1), 100 nM; read-out: Percent Control
[11] = molecular target: 468 kinases including some pathogenic mutants (Homo sapiens, UniProt Q6P3R8); conditions: NEK5 (Entrez NEK5), 100 nM; read-out: Percent Control
[12] = molecular target: 468 kinases including some pathogenic mutants (Homo sapiens, UniProt P45985); conditions: MEK4 (Entrez MAP2K4), 1000 nM; read-out: Percent Control
[13] = molecular target: 468 kinases including some pathogenic mutants (Homo sapiens, UniProt P11309); conditions: PIM1 (Entrez PIM1), 100 nM; read-out: Percent Control
[14] = molecular target: 468 kinases including some pathogenic mutants (Homo sapiens, UniProt Q04759); conditions: PRKCQ (Entrez PRKCQ), 100 nM; read-out: Percent Control
[15] = molecular target: 468 kinases including some pathogenic mutants (Homo sapiens, UniProt Q9H1R3); conditions: MYLK2 (Entrez MYLK2), 100 nM; read-out: Percent Control
[16] = molecular target: 468 kinases including some pathogenic mutants (Homo sapiens, UniProt P00533, G719C); conditions: read-out: Percent Control
[17] = molecular target: 468 kinases including some pathogenic mutants (Homo sapiens, UniProt Q16539); conditions: p38-alpha (Entrez MAPK14), 1000 nM; read-out: Percent Control
[18] = molecular target: 468 kinases including some pathogenic mutants (Homo sapiens, UniProt P36888, R834Q); conditions: read-out: Percent Control
[19] = molecular target: 468 kinases including some pathogenic mutants (Homo sapiens, UniProt P27448); conditions: MARK3 (Entrez MARK3), 100 nM; read-out: Percent Control
[20] = molecular target: 468 kinases including some pathogenic mutants (Homo sapiens, UniProt Q8N5S9); conditions: CAMKK1 (Entrez CAMKK1), 100 nM; read-out: Percent Control
[21] = molecular target: 468 kinases including some pathogenic mutants (Homo sapiens, UniProt P16591); conditions: FER (Entrez FER), 100 nM; read-out: Percent Control
[22] = molecular target: 468 kinases including some pathogenic mutants (Homo sapiens, UniProt Q9HC98); conditions: NEK6 (Entrez NEK6), 1000 nM; read-out: Percent Control
[23] = molecular target: 468 kinases including some pathogenic mutants (Homo sapiens, UniProt Q9UPZ9); conditions: ICK (Entrez ICK), 100 nM; read-out: Percent Control
[24] = molecular target: 468 kinases including some pathogenic mutants (Homo sapiens, UniProt P42336, M1043I); conditions: read-out: Percent Control
[25] = molecular target: 468 kinases including some pathogenic mutants (Homo sapiens, UniProt P53778); conditions: p38-gamma (Entrez MAPK12), 100 nM; read-out: Percent Control
[26] = molecular target: 468 kinases including some pathogenic mutants (Homo sapiens, UniProt Q6XUX3); conditions: RIPK5 (Entrez DSTYK), 1000 nM; read-out: Percent Control
[27] = molecular target: 468 kinases including some pathogenic mutants (Homo sapiens, UniProt P42336, H1047Y); conditions: read-out: Percent Control
[28] = molecular target: 468 kinases including some pathogenic mutants (Homo sapiens, UniProt P19525); conditions: PRKR (Entrez EIF2AK2), 1000 nM; read-out: Percent Control
[29] = molecular target: 468 kinases including some pathogenic mutants (Homo sapiens, UniProt P31152); conditions: ERK4 (Entrez MAPK4), 100 nM; read-out: Percent Control
Chain of 468 kinases including some pathogenic mutants (Homo sapiens, UniProt P31152) (P31152 whole entry, change not shown): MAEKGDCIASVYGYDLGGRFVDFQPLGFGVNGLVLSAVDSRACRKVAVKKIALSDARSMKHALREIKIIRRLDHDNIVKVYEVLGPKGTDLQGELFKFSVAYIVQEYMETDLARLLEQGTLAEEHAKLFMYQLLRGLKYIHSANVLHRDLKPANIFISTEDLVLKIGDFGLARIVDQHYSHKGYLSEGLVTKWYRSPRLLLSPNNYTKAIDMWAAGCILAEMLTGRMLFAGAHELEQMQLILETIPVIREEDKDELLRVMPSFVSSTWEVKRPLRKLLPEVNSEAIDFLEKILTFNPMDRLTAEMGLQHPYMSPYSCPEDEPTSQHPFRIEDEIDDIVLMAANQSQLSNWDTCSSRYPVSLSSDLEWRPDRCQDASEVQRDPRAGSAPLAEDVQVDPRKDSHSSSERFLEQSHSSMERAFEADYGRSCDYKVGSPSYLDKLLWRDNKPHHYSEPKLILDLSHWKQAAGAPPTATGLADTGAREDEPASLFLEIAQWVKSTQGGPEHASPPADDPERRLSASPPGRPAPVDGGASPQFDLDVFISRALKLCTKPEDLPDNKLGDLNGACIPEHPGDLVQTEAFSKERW

Chain of 468 kinases including some pathogenic mutants (Homo sapiens, UniProt P42336, M1043I) (P42336 whole entry M1043I): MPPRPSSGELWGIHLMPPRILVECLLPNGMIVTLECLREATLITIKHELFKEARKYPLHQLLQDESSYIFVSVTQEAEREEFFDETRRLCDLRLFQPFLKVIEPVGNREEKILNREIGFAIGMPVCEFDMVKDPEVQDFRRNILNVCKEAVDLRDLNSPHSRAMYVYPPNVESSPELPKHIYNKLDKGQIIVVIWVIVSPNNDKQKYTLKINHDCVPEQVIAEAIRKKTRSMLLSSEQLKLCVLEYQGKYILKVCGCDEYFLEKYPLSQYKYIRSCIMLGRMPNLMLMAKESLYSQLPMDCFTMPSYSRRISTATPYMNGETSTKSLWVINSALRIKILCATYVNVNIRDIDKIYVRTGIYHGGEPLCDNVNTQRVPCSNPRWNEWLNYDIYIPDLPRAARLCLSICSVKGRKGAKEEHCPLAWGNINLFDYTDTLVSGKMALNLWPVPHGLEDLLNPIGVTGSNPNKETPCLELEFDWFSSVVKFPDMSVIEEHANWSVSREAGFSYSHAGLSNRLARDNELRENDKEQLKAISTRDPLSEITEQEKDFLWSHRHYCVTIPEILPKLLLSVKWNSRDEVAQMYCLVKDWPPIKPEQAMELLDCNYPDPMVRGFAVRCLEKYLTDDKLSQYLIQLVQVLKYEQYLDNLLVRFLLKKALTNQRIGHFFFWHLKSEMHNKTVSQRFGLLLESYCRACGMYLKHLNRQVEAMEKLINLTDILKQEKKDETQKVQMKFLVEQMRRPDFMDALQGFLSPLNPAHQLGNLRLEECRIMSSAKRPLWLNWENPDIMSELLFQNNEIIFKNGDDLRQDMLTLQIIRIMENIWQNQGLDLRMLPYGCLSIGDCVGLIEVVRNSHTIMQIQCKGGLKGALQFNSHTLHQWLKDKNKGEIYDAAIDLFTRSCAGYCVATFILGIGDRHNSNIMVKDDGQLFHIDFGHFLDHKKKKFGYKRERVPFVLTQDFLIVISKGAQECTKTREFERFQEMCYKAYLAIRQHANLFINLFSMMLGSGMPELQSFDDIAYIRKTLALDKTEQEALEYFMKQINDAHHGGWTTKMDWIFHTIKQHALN
Chain of 468 kinases including some pathogenic mutants (Homo sapiens, UniProt Q9HC98) (Q9HC98 whole entry, change not shown): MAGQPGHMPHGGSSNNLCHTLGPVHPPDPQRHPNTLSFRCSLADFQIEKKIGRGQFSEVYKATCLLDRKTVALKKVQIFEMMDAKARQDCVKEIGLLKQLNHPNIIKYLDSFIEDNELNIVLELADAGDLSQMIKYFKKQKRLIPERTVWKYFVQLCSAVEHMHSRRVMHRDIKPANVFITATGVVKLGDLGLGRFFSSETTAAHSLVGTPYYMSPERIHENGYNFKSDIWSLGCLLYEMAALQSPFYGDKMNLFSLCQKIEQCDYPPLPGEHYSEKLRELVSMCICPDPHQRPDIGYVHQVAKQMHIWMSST
Chain of 468 kinases including some pathogenic mutants (Homo sapiens, UniProt P54760) (P54760 16-987, change not shown): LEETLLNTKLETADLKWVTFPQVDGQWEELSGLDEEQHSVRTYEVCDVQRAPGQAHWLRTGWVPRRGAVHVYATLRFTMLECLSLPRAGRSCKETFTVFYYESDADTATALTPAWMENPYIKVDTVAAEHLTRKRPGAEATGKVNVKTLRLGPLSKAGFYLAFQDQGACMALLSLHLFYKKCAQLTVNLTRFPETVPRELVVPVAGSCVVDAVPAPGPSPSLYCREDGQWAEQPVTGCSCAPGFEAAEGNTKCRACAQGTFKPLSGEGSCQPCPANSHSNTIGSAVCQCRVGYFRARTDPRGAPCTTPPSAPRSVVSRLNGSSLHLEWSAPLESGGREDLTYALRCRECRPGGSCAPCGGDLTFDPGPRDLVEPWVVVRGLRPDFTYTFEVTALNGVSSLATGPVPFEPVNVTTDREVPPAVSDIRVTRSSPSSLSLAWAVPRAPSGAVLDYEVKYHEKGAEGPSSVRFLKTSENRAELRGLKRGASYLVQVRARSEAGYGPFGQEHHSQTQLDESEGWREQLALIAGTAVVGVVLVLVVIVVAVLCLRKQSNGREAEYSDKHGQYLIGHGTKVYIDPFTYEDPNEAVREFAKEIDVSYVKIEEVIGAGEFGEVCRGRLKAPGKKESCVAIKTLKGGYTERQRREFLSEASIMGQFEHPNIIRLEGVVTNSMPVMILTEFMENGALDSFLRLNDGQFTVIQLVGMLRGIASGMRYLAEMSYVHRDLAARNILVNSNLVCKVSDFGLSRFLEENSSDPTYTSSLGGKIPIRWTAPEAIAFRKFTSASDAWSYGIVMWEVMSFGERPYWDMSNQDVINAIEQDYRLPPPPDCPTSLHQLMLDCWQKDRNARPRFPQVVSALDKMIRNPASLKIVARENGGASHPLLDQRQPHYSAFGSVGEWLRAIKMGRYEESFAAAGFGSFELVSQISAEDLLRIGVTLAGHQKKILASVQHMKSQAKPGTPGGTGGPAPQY
Chain of 468 kinases including some pathogenic mutants (Homo sapiens, UniProt O94806) (O94806 whole entry, change not shown): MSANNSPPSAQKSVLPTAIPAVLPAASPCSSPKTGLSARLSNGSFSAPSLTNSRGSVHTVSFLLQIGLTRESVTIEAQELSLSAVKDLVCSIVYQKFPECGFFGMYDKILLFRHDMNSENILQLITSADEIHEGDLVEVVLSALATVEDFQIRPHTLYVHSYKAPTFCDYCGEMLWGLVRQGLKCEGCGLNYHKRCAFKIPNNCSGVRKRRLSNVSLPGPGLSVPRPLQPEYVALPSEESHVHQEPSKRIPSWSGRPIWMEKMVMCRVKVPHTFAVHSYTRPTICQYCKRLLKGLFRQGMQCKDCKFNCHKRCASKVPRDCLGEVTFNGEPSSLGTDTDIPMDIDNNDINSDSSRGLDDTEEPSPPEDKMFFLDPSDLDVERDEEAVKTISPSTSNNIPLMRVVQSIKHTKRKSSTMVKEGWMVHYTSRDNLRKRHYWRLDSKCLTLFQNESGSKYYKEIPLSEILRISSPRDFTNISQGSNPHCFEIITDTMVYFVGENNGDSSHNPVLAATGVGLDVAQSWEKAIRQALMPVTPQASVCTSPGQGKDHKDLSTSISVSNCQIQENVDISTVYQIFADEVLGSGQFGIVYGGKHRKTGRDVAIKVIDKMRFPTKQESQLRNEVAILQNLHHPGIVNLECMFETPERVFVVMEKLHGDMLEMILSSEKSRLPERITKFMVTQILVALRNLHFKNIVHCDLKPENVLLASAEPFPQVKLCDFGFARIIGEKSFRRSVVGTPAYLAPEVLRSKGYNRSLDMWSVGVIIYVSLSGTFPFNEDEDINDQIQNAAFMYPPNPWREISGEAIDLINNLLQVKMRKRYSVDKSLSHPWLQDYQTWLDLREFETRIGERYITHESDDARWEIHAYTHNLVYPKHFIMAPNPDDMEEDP
Chain of 468 kinases including some pathogenic mutants (Homo sapiens, UniProt Q16539) (Q16539 whole entry, stated change not applied): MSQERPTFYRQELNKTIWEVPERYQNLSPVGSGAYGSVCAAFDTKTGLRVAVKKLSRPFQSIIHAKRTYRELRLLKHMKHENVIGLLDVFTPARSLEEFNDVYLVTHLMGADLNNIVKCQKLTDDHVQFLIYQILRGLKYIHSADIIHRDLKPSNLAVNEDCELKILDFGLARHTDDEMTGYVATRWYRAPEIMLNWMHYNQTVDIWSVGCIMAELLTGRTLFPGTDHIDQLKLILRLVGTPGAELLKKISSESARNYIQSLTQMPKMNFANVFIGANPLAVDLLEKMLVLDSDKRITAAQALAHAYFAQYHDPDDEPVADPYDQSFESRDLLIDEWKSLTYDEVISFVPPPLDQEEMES
Chain of 468 kinases including some pathogenic mutants (Homo sapiens, UniProt P27448) (P27448 whole entry, change not shown): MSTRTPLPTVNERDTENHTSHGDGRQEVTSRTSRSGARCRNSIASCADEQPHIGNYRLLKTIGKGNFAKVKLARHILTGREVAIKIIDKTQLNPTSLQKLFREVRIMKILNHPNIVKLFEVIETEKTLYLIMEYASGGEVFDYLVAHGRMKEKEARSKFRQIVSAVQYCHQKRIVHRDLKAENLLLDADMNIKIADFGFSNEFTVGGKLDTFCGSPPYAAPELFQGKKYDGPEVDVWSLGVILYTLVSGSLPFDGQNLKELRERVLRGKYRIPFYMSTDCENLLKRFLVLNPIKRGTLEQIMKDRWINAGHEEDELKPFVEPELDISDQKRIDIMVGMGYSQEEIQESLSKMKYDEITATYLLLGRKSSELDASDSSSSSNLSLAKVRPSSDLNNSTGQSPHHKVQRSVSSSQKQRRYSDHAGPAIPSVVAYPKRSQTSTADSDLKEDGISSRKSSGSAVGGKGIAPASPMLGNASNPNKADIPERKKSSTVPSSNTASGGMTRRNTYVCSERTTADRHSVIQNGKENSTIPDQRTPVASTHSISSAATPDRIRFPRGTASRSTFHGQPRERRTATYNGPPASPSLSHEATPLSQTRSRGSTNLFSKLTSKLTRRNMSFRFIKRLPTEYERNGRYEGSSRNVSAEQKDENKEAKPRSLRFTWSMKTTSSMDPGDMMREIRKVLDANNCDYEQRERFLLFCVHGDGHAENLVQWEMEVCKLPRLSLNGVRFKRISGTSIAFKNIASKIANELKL

CN1C(=O)[C@@H](N2CCc3c(nn(Cc4ccccc4)c3C(N)=O)C2=O)COc2cc(Cl)ccc21 [Compound 10, (S)-2-benzyl-6-(8-chloro-5-methyl-4-oxo-2,3,4,5-tetrahydrobenzo[b][1,4]oxazepin-3-yl)-7-oxo-4,5,6,7-tetrahydro-2H-pyrazolo[3,4-c]pyridine-3-carboxamide]
remaining activity at 0.1 µM [1]: 61%
remaining activity at 0.1 µM [2]: 94%
remaining activity at 0.1 µM [3]: 73%
remaining activity at 0.1 µM [4]: 89%
remaining activity at 0.1 µM [5]: 76%
remaining activity at 0.1 µM [6]: 75%
remaining activity at 1 µM [7]: 100%
remaining activity at 0.1 µM [8]: 72%
remaining activity at 1 µM [9]: 100%
remaining activity at 0.1 µM [10]: 92%
remaining activity at 0.1 µM [11]: 87%
remaining activity at 1 µM [12]: 100%
remaining activity at 0.1 µM [13]: 93%
remaining activity at 0.1 µM [14]: 88%
remaining activity at 0.1 µM [15]: 90%
remaining activity at 0.1 µM [16]: 100%
remaining activity at 1 µM [17]: 100%
remaining activity at 0.1 µM [18]: 81%
remaining activity at 0.1 µM [19]: 100%
remaining activity at 0.1 µM [20]: 70%
remaining activity at 0.1 µM [21]: 100%
remaining activity at 1 µM [22]: 100%
remaining activity at 0.1 µM [23]: 100%
remaining activity at 0.1 µM [24]: 78%
remaining activity at 0.1 µM [25]: 65%
remaining activity at 1 µM [26]: 100%
remaining activity at 1 µM [27]: 100%
remaining activity at 1 µM [28]: 100%
remaining activity at 0.1 µM [29]: 86%
